The values below come from the supplement of paper PMC10307832.

Common to all, as to experiment: relative viability (nuclei count vs DMSO), 5 days (fraction); higher = more cells survive
Compound in experiment [1]: C#Cc1cccc(Nc2ncnc3cc(OC)c(OCCCCCCC(=O)NO)cc23)c1 [CUDC-101] + CC(C)C[C@H](NC(=O)[C@H](Cc1ccccc1)NC(=O)c1cnccn1)B(O)O [Bortezomib] (partner 0.002 µM)
The gist of the method: (§1)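 Relative viability equals treated-well nuclei counts divided by vehicle-well nuclei counts. Counts came from 4× images of lung cancer cell lines grown in 1536-well plates for 5 days after pin-tool dosing on the day after seeding. Dosing used one drug alone or a fixed anchor-drug dose plus five library-drug doses (not always all listed) in √10 steps, and values are medians of duplicate plates.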

Compound in experiment [2]: COc1cc(N2CCC(N3CCN(C)CC3)CC2)ccc1Nc1ncc(Cl)c(Nc2ccccc2S(=O)(=O)C(C)C)n1 [NVP-TAE684] + CS(=O)(=O)CCNCc1ccc(-c2ccc3ncnc(Nc4ccc(OCc5cccc(F)c5)c(Cl)c4)c3c2)o1 [Lapatinib] (partner 2 µM)
An outline of the steps:
as §1

Compound in experiment [3]: COc1cc(N2CCC(N3CCN(C)CC3)CC2)ccc1Nc1ncc(Cl)c(Nc2ccccc2S(=O)(=O)C(C)C)n1 [NVP-TAE684] + C[C@@H](Oc1cc(-c2cnn(C3CCNCC3)c2)cnc1N)c1c(Cl)ccc(F)c1Cl [Crizotinib] (partner 1 µM)
An outline of the steps:
as §1

Compound in experiment [4]: C1=CC=C2C(=C1)N=C(S2)C(C#N)C3=NC(=NC=C3)NCCC4=CN=CC=C4 + CC(=O)Nc1cccc(-n2c(=O)n(C3CC3)c(=O)c3c(Nc4ccc(I)cc4F)n(C)c(=O)c(C)c32)c1 [Trametinib] (partner 0.02 µM)
The gist of the method: as §1

Compound in experiment [5]: C#Cc1cccc(Nc2ncnc3cc(OC)c(OCCCCCCC(=O)NO)cc23)c1 [CUDC-101] + Cc1nc(Nc2ncc(C(=O)Nc3c(C)cccc3Cl)s2)cc(N2CCN(CCO)CC2)n1 [Dasatinib] (partner 0.075 µM)
The gist of the method:
as §1

Take UMC-11: the relative viability in experiment [1] (first compound 0.01 µM) worked out at 0.918; in experiment [1] (first compound 0.03162 µM), 0.831; in experiment [1] (first compound 0.1 µM), 0.468; in experiment [1] (first compound 0.3162 µM), 0.576; in experiment [1] (first compound 1 µM), 0.167; in experiment [2] (first compound 0.2 µM), 1.03. Further, the relative viability in experiment [2] (first compound 0.6325 µM) amounted to 0.778; in experiment [2] (first compound 2 µM) it was 0.683; in experiment [3] (first compound 0.2 µM), 0.45; in experiment [3] (first compound 0.6325 µM) it was 0.459; in experiment [3] (first compound 2 µM), 0.145; in experiment [4] (first compound 0.01581 µM), 0.741. Also, the relative viability in experiment [4] (first compound 0.05 µM) worked out at 0.664; in experiment [4] (first compound 0.1581 µM), 0.839; in experiment [4] (first compound 0.5 µM) it was 0.831; in experiment [5] (first compound 0.01 µM), 0.436; in experiment [5] (first compound 0.03162 µM), 0.406; in experiment [5] (first compound 0.1 µM), 0.35. The relative viability in experiment [5] (first compound 0.3162 µM) was determined as 0.227; in experiment [5] (first compound 1 µM), 0.0988.
